The numbers were not newly measured in patent publication US20100317640A1, “ANTIMICROBIAL ZINC PYRITHIONE COMPOSITION AND METHOD” (MICROBAN PRODUCTS COMPANY, priority 2009, published 2010), which cites them from elsewhere.

For the series the following is noted: neutral pH.

With zinc pyrithione, the solubility in water is 8 ppm.
